Data: patent publication US20240124442A1, “TRICYCLIC-AMIDO-BICYCLIC PRMT5 INHIBITORS” (AMGEN INC., priority 2021, published 2024)

Columns and labels:
[1] = test system: HCT116 WT cells; test: HCT116 WT (parent) cell line proliferation / cell viability (CellTiter-Glo, 6 days); type: cell-based; details: Homo sapiens, HCT-116, 144 h, 6 days treatment
Method in brief: (§1)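 Isogenic HCT116 parent and MTAP-knockout cells in RPMI 1640 + 10% FBS, plated overnight, then exposed to compound for 6 days (37 °C, 5% CO2). Viability by CellTiter-Glo luminescence. Dilutions: 8–9 points from 1 or 10 μM (1:3), or 22 points from 10 or 50 μM (1:2); IC50 by 4-parameter or Hill −1 fit.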

[2] = test system: HCT116 MTAP null cells; test: HCT116 MTAP null cell line proliferation / cell viability (CellTiter-Glo, 6 days); type: cell-based; details: 144 h; HCT116 MTAP null cells, 6 days treatment, CellTiter-Glo cell viability; read-out: HCT-116 MTAP null IC50
Method in brief: as §1

Structure (SMILES)	IC50 [1]	IC50 [2]
CN(C(=O)c1cc2c(cc1F)nc(N)c1cnn(C)c12)[C@@H]1COc2cc(Cl)c(Cl)cc21 [Example 476, 4-amino-N-((3S)-5,6-dichloro-2,3-dihydro-1-benzofuran-3-yl)-7-fluoro-N,1-dimethyl-1H-pyrazolo[4,3-c]quinoline-8-carboxamide]	0.125 µM	0.006 µM
CN(C(=O)c1cc2c(cc1F)nc(N)c1cnn(C)c12)[C@H]1COc2cc(Cl)c(Cl)cc21 [Example 477, 4-amino-N-((3R)-5,6-dichloro-2,3-dihydro-1-benzofuran-3-yl)-7-fluoro-N,1-dimethyl-1H-pyrazolo[4,3-c]quinoline-8-carboxamide]	2.53 µM	0.092 µM
CN(C(=O)c1cc2c(cc1F)nc(N)c1cnn(C)c12)[C@@H]1COc2cc(OC(F)(F)F)ccc21 [Example 478, 4-amino-7-fluoro-N,1-dimethyl-N-((3S)-6-(trifluoromethoxy)-2,3-dihydro-1-benzofuran-3-yl)-1H-pyrazolo[4,3-c]quinoline-8-carboxamide]	0.133 µM	0.005 µM
CN(C(=O)c1cc2c(cc1Cl)nc(N)c1cnn(C)c12)[C@@H]1COc2cc(C(F)(F)F)ccc21 [Example 480, 4-amino-7-chloro-N,1-dimethyl-N-((3S)-6-(trifluoromethyl)-2,3-dihydro-1-benzofuran-3-yl)-1H-pyrazolo[4,3-c]quinoline-8-carboxamide]	0.043 µM	0.004 µM
CN(C(=O)c1cc2c(cc1Cl)nc(N)c1cnn(C)c12)[C@@H]1COc2cc(OC(F)(F)F)ccc21 [Example 481, 4-amino-7-chloro-N,1-dimethyl-N-((3S)-6-(trifluoromethoxy)-2,3-dihydro-1-benzofuran-3-yl)-1H-pyrazolo[4,3-c]quinoline-8-carboxamide]	0.045 µM	0.005 µM
CN(C(=O)c1cc2c(cc1F)nc(N)c1c2cnn1C)[C@@H]1COc2cc(Cl)c(Cl)cc21 [Example 483, 4-amino-N-((3S)-5,6-dichloro-2,3-dihydro-1-benzofuran-3-yl)-7-fluoro-N,3-dimethyl-3H-pyrazolo[3,4-c]quinoline-8-carboxamide]	5.28 µM	0.081 µM
CN(C(=O)c1cc2c(cc1Cl)nc(N)c1c2cnn1C)[C@@H]1COc2cc(C(F)(F)F)ccc21 [Example 486, 4-amino-7-chloro-N,3-dimethyl-N-((3S)-6-(trifluoromethyl)-2,3-dihydro-1-benzofuran-3-yl)-3H-pyrazolo[3,4-c]quinoline-8-carboxamide]	4.88 µM	0.078 µM
CN(C(=O)c1cc2c(cc1Cl)nc(N)c1c2cnn1C)[C@@H]1COc2cc(OC(F)(F)F)ccc21 [Example 487, 4-amino-7-chloro-N,3-dimethyl-N-((3S)-6-(trifluoromethoxy)-2,3-dihydro-1-benzofuran-3-yl)-3H-pyrazolo[3,4-c]quinoline-8-carboxamide]	2.87 µM	0.047 µM
C[C@H]1OCc2c1c(N)nc1ccc(C(=O)N(C)[C@@H]3COCc4nc(C(F)(F)F)ccc43)cc21 [Example 488, (3R)-4-amino-N,3-dimethyl-N-((5S)-2-(trifluoromethyl)-5,8-dihydro-6H-pyrano[3,4-b]pyridin-5-yl)-1,3-dihydrofuro[3,4-c]quinoline-8-carboxamide]	0.682 µM	0.013 µM
CN(C(=O)c1cc2c3c(c(N)nc2cn1)COC3)[C@@H]1COCc2cc(C#N)ccc21 [Example 489, 4-amino-N-((4S)-7-cyano-3,4-dihydro-1H-2-benzopyran-4-yl)-N-methyl-1,3-dihydrofuro[3,4-c][1,7]naphthyridine-8-carboxamide]	2.22 µM	0.049 µM
CN(C(=O)c1cc2c3c(c(N)nc2cn1)COC3)[C@@H]1COCc2cc(C(F)(F)F)ccc21 [Example 490, 4-amino-N-methyl-N-((4S)-7-(trifluoromethyl)-3,4-dihydro-1H-2-benzopyran-4-yl)-1,3-dihydrofuro[3,4-c][1,7]naphthyridine-8-carboxamide]	1.03 µM	0.033 µM
CN(C(=O)c1cc2c3c(c(N)nc2cn1)COC3)[C@@H]1COCc2nc(C(F)(F)F)ccc21 [Example 491, 4-amino-N-methyl-N-((5S)-2-(trifluoromethyl)-5,8-dihydro-6H-pyrano[3,4-b]pyridin-5-yl)-1,3-dihydrofuro[3,4-c][1,7]naphthyridine-8-carboxamide]	2.06 µM	0.043 µM
CN(C(=O)c1cc2c3c(c(N)nc2cn1)COC3)[C@@H]1COCc2cc(C(F)(F)F)ncc21 [Example 492, 4-amino-N-methyl-N-((4S)-7-(trifluoromethyl)-3,4-dihydro-1H-pyrano[4,3-c]pyridin-4-yl)-1,3-dihydrofuro[3,4-c][1,7]naphthyridine-8-carboxamide]	31.4 µM	0.706 µM
CN(C(=O)c1cnc2nc(N)c3c(c2c1)COC3)[C@@H]1COCc2cc(C(F)(F)F)ccc21 [Example 493, 4-amino-N-methyl-N-((4S)-7-(trifluoromethyl)-3,4-dihydro-1H-2-benzopyran-4-yl)-1,3-dihydrofuro[3,4-c][1,8]naphthyridine-8-carboxamide]	2.05 µM	0.092 µM
CN(C(=O)c1cc2c3c(c(N)nc2cc1F)COC3)[C@@H]1COCc2nc(C(F)(F)F)ccc21 [Example 494, 4-amino-7-fluoro-N-methyl-N-((5S)-2-(trifluoromethyl)-5,8-dihydro-6H-pyrano[3,4-b]pyridin-5-yl)-1,3-dihydrofuro[3,4-c]quinoline-8-carboxamide]	0.671 µM	0.023 µM
C[C@H]1OCc2c1c(N)nc1cc(F)c(C(=O)N(C)[C@@H]3COCc4nc(C(F)(F)F)ccc43)cc21 [Example 495, (3R)-4-amino-7-fluoro-N,3-dimethyl-N-((5S)-2-(trifluoromethyl)-5,8-dihydro-6H-pyrano[3,4-b]pyridin-5-yl)-1,3-dihydrofuro[3,4-c]quinoline-8-carboxamide]	0.386 µM	0.015 µM
CN(C(=O)c1cc2c3c(c(N)nc2cc1Cl)COC3)[C@@H]1COCc2cc(C#N)ccc21 [Example 496, 4-amino-7-chloro-N-((4S)-7-cyano-3,4-dihydro-1H-2-benzopyran-4-yl)-N-methyl-1,3-dihydrofuro[3,4-c]quinoline-8-carboxamide]	0.205 µM	0.005 µM
Cc1noc2c1c(N)nc1ccc(C(=O)N(C)[C@@H]3COCc4cc(C#N)ccc43)cc12 [Example 497, 4-amino-N-((4S)-7-cyano-3,4-dihydro-1H-2-benzopyran-4-yl)-N,3-dimethyl[1,2]oxazolo[4,5-c]quinoline-8-carboxamide]	19.7 µM	0.35 µM
Cc1noc2c1c(N)nc1ccc(C(=O)N(C)[C@@H]3COCc4cc(C(F)(F)F)ccc43)cc12 [Example 498, 4-amino-N,3-dimethyl-N-((4S)-7-(trifluoromethyl)-3,4-dihydro-1H-2-benzopyran-4-yl)[1,2]oxazolo[4,5-c]quinoline-8-carboxamide]	9.11 µM	0.185 µM
CN(C(=O)c1ccc2nc(N)c3cnn(C)c3c2c1)[C@@H]1COCc2cc(C(F)(F)F)ccc21 [Example 499, 4-amino-N,1-dimethyl-N-((4S)-7-(trifluoromethyl)-3,4-dihydro-1H-2-benzopyran-4-yl)-1H-pyrazolo[4,3-c]quinoline-8-carboxamide]	0.152 µM	0.004 µM
CN(C(=O)c1ccc2nc(N)c3cnn(C)c3c2c1)[C@@H]1COCc2cc(C(F)(F)F)ncc21 [Example 500, 4-amino-N,1-dimethyl-N-((4S)-7-(trifluoromethyl)-3,4-dihydro-1H-pyrano[4,3-c]pyridin-4-yl)-1H-pyrazolo[4,3-c]quinoline-8-carboxamide]	0.501 µM	0.01 µM
CCN(C(=O)c1ccc2nc(N)c3cnn(C)c3c2c1)[C@@H]1COCc2nc(C(F)(F)F)ccc21 [Example 501, 4-amino-N-ethyl-1-methyl-N-((5S)-2-(trifluoromethyl)-5,8-dihydro-6H-pyrano[3,4-b]pyridin-5-yl)-1H-pyrazolo[4,3-c]quinoline-8-carboxamide]	0.141 µM	0.004 µM
CCN(C(=O)c1ccc2nc(N)c3cnn(C)c3c2c1)[C@H]1COCc2nc(C(F)(F)F)ccc21 [Example 502, 4-amino-N-ethyl-1-methyl-N-((5R)-2-(trifluoromethyl)-5,8-dihydro-6H-pyrano[3,4-b]pyridin-5-yl)-1H-pyrazolo[4,3-c]quinoline-8-carboxamide]	11.8 µM	0.414 µM
Cn1ncc2c(N)nc3ccc(C(=O)N(C4CC4)[C@@H]4COCc5nc(C(F)(F)F)ccc54)cc3c21 [Example 503, 4-amino-N-cyclopropyl-1-methyl-N-((5S)-2-(trifluoromethyl)-5,8-dihydro-6H-pyrano[3,4-b]pyridin-5-yl)-1H-pyrazolo[4,3-c]quinoline-8-carboxamide]	1.26 µM	0.018 µM
CC(C)CN(C(=O)c1ccc2nc(N)c3cnn(C)c3c2c1)[C@@H]1COCc2nc(C(F)(F)F)ccc21 [Example 504, 4-amino-1-methyl-N-(2-methylpropyl)-N-((5S)-2-(trifluoromethyl)-5,8-dihydro-6H-pyrano[3,4-b]pyridin-5-yl)-1H-pyrazolo[4,3-c]quinoline-8-carboxamide]	0.144 µM	0.004 µM
CC(C)CN(C(=O)c1ccc2nc(N)c3cnn(C)c3c2c1)[C@H]1COCc2nc(C(F)(F)F)ccc21 [Example 505, 4-amino-1-methyl-N-(2-methylpropyl)-N-((5R)-2-(trifluoromethyl)-5,8-dihydro-6H-pyrano[3,4-b]pyridin-5-yl)-1H-pyrazolo[4,3-c]quinoline-8-carboxamide]	12.1 µM	0.244 µM
